Measurements as given in paper PMC7838189, “Natural podophyllotoxin analog 4DPG attenuates EMT and colorectal cancer progression via activation of checkpoint kinase 2” (Cell Death Discovery, 2021).

Experiments:
Assay type in all cases: cell-based
HCT-116/5-FU-R cells = experiment: Western blotting of Chk2 and EMT markers after 4DPG; conditions: 48 h
Source text: (§1) 4DPG, a podophyllotoxin class of natural product anticancer compound (Supplementary Fig. S2A) has been recently described by our research group for its potent antitumor and anti-metastatic properties against aggressive cancers[31],[32]. Further, 4DPG augments phosphorylation and activation of Chk2 (Thr68) leading to suppression of EMT and invasiveness of p53-defective cancer cells. To investigate the effect of 4DPG on phosphorylation and expression levels of Chk2 in HCT-116/5-FU-R, SW-620/5-FU-R, and HT-29/5-FU-R cells, we treated these cells for 48 h with increasing concentrations of the compound, and whole-cell lysates were subjected to western blotting analysis. […] To determine the effect of 4DPG on the invasion abilities of these 5-FU-R cells, we performed in situ fluorescent gelatin degradation assay following our pre-standardized protocol[31],[37]. In physiological conditions, this assay mimics the extracellular matrix degradation by aggressive tumor cells undergoing invasion–metastasis process.
(§2) Fig. 2 4DPG activates Chk2 and attenuates EMT in 5-FU-R CRC cells. A Western blotting analysis results portraying protein expression of p-Chk2 (Thr68) and Chk2 in HCT-116/5-FU-R and SW-620/5-FU-R cells in response to increasing concentrations of 4DPG, treated for 48 h. β-Actin expression was considered as endogenous loading control. B Densitometry analysis showing relative protein expression of western blot bands presented above. n = 3, error bars: mean ± SD; ***P < 0.001. C Western blots depicting protein expression of EMT markers in HCT-116/5-FU-R and SW-620/5-FU-R cells in response to increasing concentrations of 4DPG, treated for 48 h. β-Actin expression was considered as endogenous loading control. […] E Immunocytochemistry results displaying the protein expression levels of Vimentin in HCT-116/5-FU-R and SW-620/5-FU-R cells, treated with vehicle and/or 4DPG (300 nM) for 48 h. Scale bars: 50 µm. F In situ fluorescent gelatin degradation assay results showing the invadopodia/footprints of invaded SW-620/5-FU-R cells treated with vehicle and/or 4DPG at the indicated concentration for 48 h. Blue stains over the green background display DAPI staining of nuclei of cells. G Quantification of the area of degradation through Image J software. n = 3, error bars, mean ± SD; ***P < 0.001.
(§3) We adhered to the previously published protocol for western blotting. To sum up, cells were exposed to the respective treatments (mentioned in figure legends). Post-treatment, cells were lysed with cell lysis buffer, and cell lysates were collected after centrifugation. Bradford assay was performed to quantify the protein concentration. Equal amount of protein was taken from each sample to carry out the western blot analysis. SDS-PAGE was employed to separate the proteins that were later transferred onto PVDF membranes (Millipore, Billerica, MA). Next, the membranes were blocked with 5% skim milk and subsequently incubated with the specific primary antibodies (1:1000 dilution), either for 3 h at room temperature or overnight at 4 °C. Later, the blots were washed thoroughly with TBST and probed with the respective secondary antibodies (1:2000 dilution) coupled with horseradish peroxidase for 1 h. Following thorough washing, the membranes were visualized using enhanced chemiluminescence reagent (Millipore) and captured onto Biomax light film (The Eastman Kodak Co., Rochester, NY).

SW-620/5-FU-R cells [1] = experiment: as above; conditions: 48 h
Source text: as §1, §2, §3

SW-620/5-FU-R cells [2] = experiment: Immunocytochemistry of Vimentin; conditions: 48 h
Source text: as §1
To examine whether 4DPG-mediated repression of Vimentin and invasiveness is a Chk2-dependent process, we performed genetic silencing of endogenous Chk2 in the 5-FU-R cells using target-specific SiRNAs.
Fig. 3 Chk2-dependent role of 4DPG in modulating p53 and repressing Vimentin expression in 5-FU-R cells. A Immunocytochemistry results showing the Vimentin expression level in SW-620/5-FU-R cells treated/transfected with scramble, SiChk2, scramble plus 4DPG, SiChk2 plus 4DPG, vehicle, PV1019, 4DPG, and PV1019 plus 4DPG for 48 h. Scale bars: 50 µm. […] C Matrigel invasion assay results showing invaded HCT-116/5-FU-R and SW-620/5-FU-R cells following 48 h of transient transfection with GFP and GFP-Chk2 plasmid construct. Scale bars: 50 µm. D Quantification of the number of invaded cells per field from the above experimental conditions. n = 3, error bars, mean ± SD; *P < 0.05, ***P < 0.001. E Immunocytochemistry results displaying Vimentin expression levels in HCT-116/5-FU-R and SW-620/5-FU-R cells after 48 h of transient transfection with pCDNA3 and/or HA-Chk2 plasmid construct. Scale bars: 50 µm. F Immunoprecipitation with Vimentin or p53 followed by western blotting analysis of p53 in SW-620/5-FU-R cells treated with vehicle and/or 4DPG (300 nM) for 48 h. G Cytosolic (left panel) and nuclear (right panel) extracts of SW-620/5-FU-R cells treated with vehicle and/or 4DPG (300 nM) for 48 h showing protein expression of Vimentin and p53. Tubulin and lamin expression was considered as endogenous loading controls for cytosolic and nuclear fractions, respectively.
We followed the standard protocol with some modifications for immunocytochemistry[56],[58]. In brief, cells, at a density of 4 × 10^5 cells/well, were seeded over the sterile coverslips placed in six-well plates. Following the respective treatment, cells were washed thrice with PBS. Next, the cells were fixed with 4% paraformaldehyde (pH = 7.4) for 15 min, permeabilized with 0.3% Triton X-100 for 10 min, and then blocked with 1% goat serum for 30 min. Consequently, the cells were incubated with anti-Vimentin antibody overnight at 4 °C, at a dilution of 1:100, followed by washing with PBST and further incubation with secondary anti-rabbit Alexa Fluor 488 (1:750 dilution). After subsequent washing and mounting, the images were captured at ×20 magnification under Floid Cell Imaging Station (Invitrogen).

SW-620/5-FU-R cells [3] = experiment: In situ fluorescent gelatin degradation assay (invadopodia); conditions: 48 h, vs vehicle
Source text: as §1
Fig. 2 4DPG activates Chk2 and attenuates EMT in 5-FU-R CRC cells. […] G Quantification of the area of degradation through Image J software. n = 3, error bars, mean ± SD; ***P < 0.001. […]

[4] = increasing concentrations, immunoblot

COc1cc([C@@H]2c3cc4c(cc3C[C@H]3COC(=O)[C@@H]32)OCO4)cc(OC)c1O[C@@H]1O[C@H](CO)[C@@H](O)[C@H](O)[C@H]1O [4DPG, 4′-demethyl-deoxypodophyllotoxin glucoside]
increase in p-Chk2 (Thr68) level (HCT-116/5-FU-R cells; 300 nM (sub-toxic), vs vehicle): 12 fold | expression of Chk2 (total) (HCT-116/5-FU-R cells; vs vehicle): did not alter significantly | amplification of E-cadherin (HCT-116/5-FU-R cells; increasing concentrations): ≤ 12.8 fold | amplification of TIMP-1 (HCT-116/5-FU-R cells; increasing concentrations): up to 12.5 fold | p-Vimentin (ser38), Vimentin, Twist1 and MMP-2 expression (HCT-116/5-FU-R cells; [4]): remarkable downregulation | increase in p-Chk2 (Thr68) level (SW-620/5-FU-R cells [1]; 300 nM (sub-toxic), vs vehicle): 11.2 fold | expression of Chk2 (total) (SW-620/5-FU-R cells [1]; vs vehicle): did not alter significantly | amplification of E-cadherin (SW-620/5-FU-R cells [1]; increasing concentrations): ≤ 10.2 fold | amplification of TIMP-1 (SW-620/5-FU-R cells [1]; increasing concentrations): ≤ 7.2 fold | p-Vimentin (ser38), Vimentin, Twist1 and MMP-2 expression (SW-620/5-FU-R cells [1]; [4]): remarkable downregulation | Vimentin expression level (immunocytochemistry) (SW-620/5-FU-R cells [2]; 300 nM): considerable decrease | inhibition of Vimentin level by 4DPG (SW-620/5-FU-R cells [2]; PV1019 plus 4DPG): negligible inhibition | inhibition of Vimentin level by 4DPG (SW-620/5-FU-R cells [2]; SiChk2 plus 4DPG (Chk2-silenced)): mild inhibition | Vimentin level (immunocytochemistry) (SW-620/5-FU-R cells [2]; scramble plus 4DPG): substantial reduction | invadopodia formation and area of degradation over the gelatin matrix (SW-620/5-FU-R cells [3]): significantly reduced
